Columns and labels:
Assay in all cases: relative viability (nuclei count vs DMSO), 5 days (fraction); higher = more cells survive
Lapatinib + Pictilisib = compound: CS(=O)(=O)CCNCc1ccc(-c2ccc3ncnc(Nc4ccc(OCc5cccc(F)c5)c(Cl)c4)c3c2)o1 [Lapatinib] + CS(=O)(=O)N1CCN(Cc2cc3nc(-c4cccc5[nH]ncc45)nc(N4CCOCC4)c3s2)CC1 [Pictilisib] (partner 1 µM)
In short: (§1)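 Lung cancer cell lines were seeded in 1536-well plates and dosed by pin tool the next day, with either a single drug or a fixed anchor-drug dose combined with five library-drug doses (not always all listed) spaced in √10 steps. Five days later, one step fixed the cells and stained their nuclei (final 0.05% Triton X-100, 1% formaldehyde, 1 ug/ml Hoechst), and nuclei were counted on 4× images. Relative viability is the nuclei count in treated wells divided by the count in vehicle wells, and each value is the median of duplicate plates.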

Lapatinib + Tozasertib = compound: CS(=O)(=O)CCNCc1ccc(-c2ccc3ncnc(Nc4ccc(OCc5cccc(F)c5)c(Cl)c4)c3c2)o1 [Lapatinib] + Cc1cc(Nc2cc(N3CCN(C)CC3)nc(Sc3ccc(NC(=O)C4CC4)cc3)n2)n[nH]1 [Tozasertib] (partner 0.1 µM)
In short: as §1

Wnt-C59 + Vorinostat = compound: CC1=NC=CC(=C1)C2=CC=C(C=C2)CC(=O)NC3=CC=C(C=C3)C4=CN=CC=C4 [Wnt-C59] + O=C(CCCCCCC(=O)Nc1ccccc1)NO [Vorinostat] (partner 1 µM)
In short: as §1

Wnt-C59 + Lapatinib = compound: CC1=NC=CC(=C1)C2=CC=C(C=C2)CC(=O)NC3=CC=C(C=C3)C4=CN=CC=C4 [Wnt-C59] + CS(=O)(=O)CCNCc1ccc(-c2ccc3ncnc(Nc4ccc(OCc5cccc(F)c5)c(Cl)c4)c3c2)o1 [Lapatinib] (partner 2 µM)
In short: as §1

Cell Line	relative viability (Lapatinib + Pictilisib; first compound 0.02 µM)	relative viability (Lapatinib + Pictilisib; first compound 0.06325 µM)	relative viability (Lapatinib + Pictilisib; first compound 0.2 µM)	relative viability (Lapatinib + Pictilisib; first compound 0.6325 µM)	relative viability (Lapatinib + Pictilisib; first compound 2 µM)	relative viability (Lapatinib + Tozasertib; first compound 0.02 µM)	relative viability (Lapatinib + Tozasertib; first compound 0.2 µM)	relative viability (Lapatinib + Tozasertib; first compound 0.6325 µM)	relative viability (Lapatinib + Tozasertib; first compound 2 µM)	relative viability (Wnt-C59 + Vorinostat; first compound 0.001 µM)	relative viability (Wnt-C59 + Vorinostat; first compound 0.01 µM)	relative viability (Wnt-C59 + Vorinostat; first compound 0.03162 µM)	relative viability (Wnt-C59 + Vorinostat; first compound 0.1 µM)	relative viability (Wnt-C59 + Lapatinib; first compound 0.001 µM)	relative viability (Wnt-C59 + Lapatinib; first compound 0.01 µM)	relative viability (Wnt-C59 + Lapatinib; first compound 0.03162 µM)	relative viability (Wnt-C59 + Lapatinib; first compound 0.1 µM)	relative viability (Lapatinib + Tozasertib; first compound 0.06325 µM)
NCI-H727	0.339	0.246	0.434	0.357	0.343	0.602	0.704	0.453	0.391	1.14	1.16	1.09	1.14	0.891	0.761	0.787	0.966	–
NCI-H1666	0.33	0.327	0.39	0.329	0.2	0.598	0.573	0.453	0.36	0.964	1	0.913	1.05	0.675	0.516	0.659	0.75	0.577
NCI-H1792	0.292	0.236	0.294	0.302	0.123	–	–	–	–	–	–	–	–	0.866	0.982	0.991	0.913	–
LCLC-103H	–	0.555	0.695	0.636	0.494	0.419	0.455	0.407	0.384	0.887	0.743	0.762	0.806	–	–	–	–	0.448
BEN	0.412	0.577	0.53	0.519	0.505	–	0.51	0.515	0.351	0.581	0.523	0.675	0.579	0.825	0.804	0.736	0.641	0.513
COR-L 105	0.33	0.329	0.35	0.419	0.307	0.351	0.355	0.294	0.244	0.991	0.71	0.877	0.857	0.342	0.381	0.407	0.358	0.351
LC-2-ad	–	0.425	0.543	0.431	0.322	–	0.444	0.456	0.372	0.699	0.714	0.742	0.688	1.03	0.902	0.975	0.927	0.392
NCI-H358	0.334	–	0.301	0.304	0.309	0.0946	0.0913	0.078	0.0817	0.803	0.589	0.8	0.65	0.44	0.524	0.474	0.456	0.0876
HARA	0.418	0.261	0.527	0.33	0.288	–	0.0933	0.0794	0.119	0.729	0.533	0.511	0.481	0.649	0.746	0.876	0.751	0.0893
CAL-12T	–	0.415	0.31	0.528	0.351	–	0.333	0.273	0.122	0.808	0.82	0.975	0.805	0.614	–	0.761	0.625	0.274
NCI-H1975	0.281	0.24	0.309	0.329	0.192	0.583	0.25	0.178	0.167	0.727	0.76	0.756	0.706	0.816	0.863	0.934	0.882	0.516
PC-14	0.543	0.641	0.768	0.804	0.121	–	0.638	0.551	0.356	0.815	0.96	0.886	0.723	0.311	0.324	0.328	0.316	0.604
NCI-H1944	–	–	0.348	0.343	0.318	0.245	0.239	0.205	0.181	0.621	0.552	0.57	0.621	0.745	0.795	0.866	0.769	0.216
A-427	–	0.602	0.854	0.765	0.665	–	0.209	0.231	0.185	0.851	0.878	0.874	0.895	1.04	1.01	1.09	1.11	0.252
ChaGo-K-1	–	0.861	0.598	0.599	0.32	0.218	0.206	0.2	0.208	0.751	0.781	0.689	0.774	–	–	–	–	0.194
A549	0.477	0.401	0.468	0.456	0.506	–	–	–	–	–	–	–	–	1.04	1.02	0.966	0.988	–
NCI-H1299	0.871	0.768	0.859	0.801	0.803	–	–	–	–	–	–	–	–	0.984	0.975	0.982	0.988	–
NCI-H2342	–	–	–	–	–	0.495	0.455	0.538	0.354	0.706	0.747	0.855	0.732	–	–	–	–	0.489
SW 900	–	–	–	–	–	–	0.374	0.298	0.276	0.475	0.343	0.479	0.488	–	–	–	–	0.35
NCI-H1703	0.231	0.213	0.228	0.32	0.275	–	–	–	–	–	–	–	–	1.16	1.28	1.3	1.12	–
NCI-H1623	–	–	–	–	–	0.423	–	0.379	0.154	–	–	–	–	–	–	–	–	0.344
NCI-H441	0.332	0.417	0.431	0.422	0.453	–	0.491	0.462	0.454	0.786	0.867	0.806	0.887	–	–	–	–	0.551
NCI-H1563	0.592	0.643	0.6	0.725	0.693	–	–	–	–	–	–	–	–	0.873	1.04	0.896	0.882	–
EBC-1	0.467	0.368	0.364	0.386	0.256	–	–	–	–	–	–	–	–	0.203	0.214	0.18	0.208	–

Reference: the supplement of paper PMC10307832
